# Test results reported in patent US20100209486A1, “Method of enhancing CoenzymeQ10 levels in mammals” (priority 2009, published 2010).
# Values joined by “and” are separate entries in the source; they are usually repeats but may differ in a detail not shown here. Equal entries are not always repeated. Marks after values point to notes of the source that are not given here.
# Key:
# [1] = test system: isolated guinea pig hearts; assay: Myocardial infarct size (TTC staining) in isolated ischemic/reperfused guinea pig hearts; assay type: in vivo; conditions: 5 mg/kg/day oral for 4 weeks; 30 min global ischemia, 120 min reperfusion; ratio infarct zone to risk zone; control 38±4.1%
# Protocol: FIG. 2/A Effects of CoQ10 and CoQ9 on infarct size in isolated guinea pig hearts subjected to 30 min of ischemia followed by 120 min of reperfusion. The bars represent mean±SD of infarct size for control, CoQ10 and CoQ9 supplemented groups. *p<0.05 compared to the untreated age-matched ischemic/reperfused drug-free control (C) value. N=12 in each group.
# Experimental studies were designed to determine if CoQ9 could protect guinea pig hearts from ischemia reperfusion injury. Myocardial ischemia reperfusion injury model is the most widely accepted experimental method for assessment of parameters related to cardio-protection. […] Cardioprotection was assessed by evaluating left ventricular function, ventricular arrhythmias, myocardial infarct size and cardiomyocyte apoptosis.
# CoQ9 and CoQ10 treatment protects from cardiac infarction: Animal preparation, drug pretreatment and isolated working heart preparation were done as described in example 1. […] Using the NIH Image 1.61 image processing software, Infarct zones of each slice were traced and the respective areas were calculated in terms of pixels. The areas were measured by computerized planimetry software and these areas were multiplied by the weight of each slice, then the results summed up to obtain the weight of the risk zone. Infarct size was calculated as the ratio, in percent, of the infarct zone to the risk zone. […]
# [2] = test system: isolated guinea pig hearts; assay: Recovery of post-ischemic cardiac function (HR, CF, AF, LVDP) in isolated working guinea pig hearts; assay type: in vivo; conditions: 5 mg/kg/day oral for 4 weeks; for aortic flow (AF), After 60 min of RE / coronary flow (CF), After 60 min of RE / heart rate (HR), After 60 min of RE / left ventricular developed pressure (LVDP), After 60 min of RE / aortic flow (AF), After 120 min of RE / heart rate (HR), After 120 min of RE / coronary flow (CF), After 120 min of RE / left ventricular developed pressure (LVDP), After 120 min of RE: 30 min ischemia; for aortic flow (AF), After 60 min of RE / coronary flow (CF), After 60 min of RE / heart rate (HR), After 60 min of RE / left ventricular developed pressure (LVDP), After 60 min of RE: 60 min reperfusion; for aortic flow (AF), After 120 min of RE / heart rate (HR), After 120 min of RE / coronary flow (CF), After 120 min of RE / left ventricular developed pressure (LVDP), After 120 min of RE: 120 min reperfusion; for aortic flow (AF), Before ISA / coronary flow (CF), Before ISA / heart rate (HR), Before ISA / left ventricular developed pressure (LVDP), Before ISA: isolated heart before ischemia
# Protocol: Experimental studies were designed to determine if CoQ9 could protect guinea pig hearts from ischemia reperfusion injury. Myocardial ischemia reperfusion injury model is the most widely accepted experimental method for assessment of parameters related to cardio-protection. Guinea pigs were randomly divided into three groups: Group II and Group III were supplemented with 5 mg/kg bodyweight of CoQ9 and CoQ10, respectively, for 4 weeks while Group I served as control (C). After 4 weeks, the guinea pigs were sacrificed and the isolated hearts were perfused via working mode. The isolated hearts were subjected to ischemia for 30 min followed by 2 hours of reperfusion. Cardioprotection was assessed by evaluating left ventricular function, ventricular arrhythmias, myocardial infarct size and cardiomyocyte apoptosis.
# Similar types of post-ischemic recovery of HR, CF, and LVDP were registered (Table 1) in isolated hearts obtained from guinea pigs treated with 5 mg/kg/day of CoQ10 or CoQ9 for 4 weeks. The improvement in post-ischemic cardiac function (HR, CF, AF, and LVDP) was more pronounced in the CoQ9 treated group than in the CoQ10 treated group.
# Protective effect of CoQ9 and CoQ10 against from Ventricular Fibrillation (VF): Healthy Male Hartley guinea pigs of about 350-400 gm body weight were randomly divided into three groups, Control, CoQ9 and CoQ10. The guinea pigs were given orally 5 mg/kg body weight [in 0.5 ml water] of vehicle only, CoQ9 or CoQ10 respectively by gavage once a day. […] Treatment was continued for 30 days, the animals had free access to food and water. After 30 days, all animals were anesthetized, heparinized and sacrificed. The hearts excised, and isolated for perfusion via Langendorff mode for 5 min of washout period of the Langendorff heart perfusion, the pulmonary vein was cannulated, and the heart was switched to the “working” mode via perfusion of the left atria (at a filling pressure of 17 cm of the buffer, 1.7 kPa) as it was described in detail elsewhere. Global ischemia was imposed by clamping the atrial and aortic cannulas. Epicardial ECG was recorded through out the experiment, by attaching two silver electrodes directly to the myocardium and data collected using a data acquisition system (ADInstruments, Powerlab, Castle Hill, Australia). ECGs were analyzed to determine ventricular fibrillation (VF) and ventricular tachycardia (VT). The first 10 min of reperfusion was done in Langendorf (‘nonworking’) mode in order to avoid the development of reperfusion-induced VT and VF during the ‘working’ heart reperfusion. After the initial 2 min of VT or/and VF (sustained VF) in Langendorff reperfusion, hearts were defibrillated (if it was necessary), reperfused for an additional 8 min in Langendorff mode, and switched to ‘working heart’ reperfusion, and myocardial function was recorded. The heart was considered to be in VF if an irregular undulating baseline was apparent on the ECG. The data of VT, VF and sinus rhythm show their durations (in seconds) within the first 120 s of nonworking Langendorff reperfusion. The incidences of reperfusion-induced ventricular fibrillation (VF) for CoQ9 and CoQ10 are depicted in FIG. 1. […] Incidence of VF was reduced from 92% (control group) to 25% (*p<0.05) and 8% (*p<0.05) with 5 mg/kg/day of CoQ10 and CoQ9, respectively.
# CoQ9 and CoQ10 treatment improves post-ischemic cardiac function (HR, CF, AF, and LVDP): Animal preparation, drug pretreatment and isolated working heart preparation were done as described in example 1. The isolated hearts obtained from group II and Group III guinea pigs treated with 5 mg/kg/day of […], for 4 weeks were subjected to 30 min ischemia followed by 120 min of reperfusion. […]
Structure (SMILES),infarct size [1] [%],"aortic flow (AF), After 60 min of RE [2]","coronary flow (CF), After 60 min of RE [2]","heart rate (HR), After 60 min of RE [2]","left ventricular developed pressure (LVDP), After 60 min of RE [2]","aortic flow (AF), After 120 min of RE [2]","heart rate (HR), After 120 min of RE [2] [beats/min]","aortic flow (AF), Before ISA [2] [mL/min]","heart rate (HR), Before ISA [2] [beats/min]","left ventricular developed pressure (LVDP), Before ISA [2] [mm Hg]",also measured
"COC1=C(OC)C(=O)C(C/C=C(\C)CC/C=C(\C)CC/C=C(\C)CC/C=C(\C)CC/C=C(\C)CC/C=C(\C)CC/C=C(\C)CC/C=C(\C)CCC=C(C)C)=C(C)C1=O [CoQ9, Coenzyme Q9]",16.3±3.2,27 ± 1* ml/min,22 ± 2* ml/min,240 ± 4* beats/min,80 ± 2* mm Hg,26.0 ± 1.0 mL/min,233±4,35 ± 2,248 ± 5,106 ± 4,"aortic flow (AF), After 120 min of RE ([2]; listed as CoQ 9): 26 ± 1 mL/min; coronary flow (CF), After 120 min of RE ([2]; listed as CoQ 9): 25 ± 2 mL/min; left ventricular developed pressure (LVDP), After 120 min of RE ([2]; listed as CoQ 9): 75±2 mm Hg; aortic flow (AF), After 120 min of RE ([2]; listed as Q9): 26 ± 1* ml/min; coronary flow (CF), After 120 min of RE ([2]; listed as Q9): 25 ± 2* ml/min; heart rate (HR), After 120 min of RE ([2]; listed as Q9): 233 ± 4* beats/min; left ventricular developed pressure (LVDP), After 120 min of RE ([2]; listed as Q9): 75 ± 2* mm Hg; coronary flow (CF), Before ISA [2]: 23 ± 2 mL/min; coronary flow (CF), Before ISA ([2]; listed as Q9): 23 ± 2 mL/min"
"COC1=C(OC)C(=O)C(C/C=C(\C)CC/C=C(\C)CC/C=C(\C)CC/C=C(\C)CC/C=C(\C)CC/C=C(\C)CC/C=C(\C)CC/C=C(\C)CC/C=C(\C)CCC=C(C)C)=C(C)C1=O [CoQ10, Coenzyme Q10, reference compound]",21.1±5,20 ± 2* ml/min,20 ± 1* ml/min,228 ± 3* beats/min,71 ± 3* mm Hg,18.0 ± 2.0 mL/min and 18 ± 2 mL/min,217±3,34 ± 2,261 ± 6,100 ± 5,"coronary flow (CF), After 120 min of RE [2]: 19 ± 1 mL/min; left ventricular developed pressure (LVDP), After 120 min of RE [2]: 64±3 mm Hg; aortic flow (AF), After 120 min of RE ([2]; listed as Q10): 18 ± 2* ml/min; coronary flow (CF), After 120 min of RE ([2]; listed as Q10): 19 ± 1* ml/min; heart rate (HR), After 120 min of RE ([2]; listed as Q10): 217 ± 3* beats/min; left ventricular developed pressure (LVDP), After 120 min of RE ([2]; listed as Q10): 64 ± 3* mm Hg; coronary flow (CF), Before ISA ([2]; listed as CoQ 10): 25 ± 2 mL/min; coronary flow (CF), Before ISA ([2]; listed as Q10): 25 ± 2 mL/min"
